Here are results for one molecule from patent publication US12433865B2, “Compositions comprising PGI2-receptor agonists and processes for the preparation thereof” (Arena Pharmaceuticals, Inc., priority 2018, dated 2025).

In general, half-life refers to the time needed for the level to fall by half in the phase considered. Usually Tmax stands for the time from dosing to the highest level.

Series [1] is described as follows: Open-label, fixed sequence single-dose pharmacokinetic study in healthy subjects (Example 7 A). It is filed as in vivo, human. The protocol:
A. An open-label, fixed sequence, non-randomized study in two cohorts of healthy male and non-pregnant, non-lactating female subjects was conducted. Two cohorts with twelve subjects in each were enrolled to ensure data in ten evaluable subjects per cohort.
Each subject in Cohort 1 received each of the following regimens, in the fasted state, in a sequential manner over four treatment periods: • Regimen A (0.03 mg immediate-release Compound 1): 1×0.03 mg Compound 1 immediate-release capsule. • Regimen B (0.06 mg modified-release Compound 1): 1×0.06 mg Compound 1 modified-release tablet as disclosed herein. • Regimen C (0.12 mg modified-release Compound 1): 2×0.06 mg Compound 1 modified-release tablets as disclosed herein. • Regimen D (0.18 mg modified-release Compound 1) 3×0.06 mg Compound 1 modified-release tablets as disclosed herein.
Subjects received each regimen in the morning of Day 1, following an overnight fast of a minimum of 8 hours. PK samples were taken from subjects at 72 hours post-dose. There was a minimum washout period of 7 days between each administration of investigational medicinal product (IMP) (i.e., selexipag film-coated tablet(s), Compound 1 immediate-release capsule(s), and/or Compound 1 modified-release tablet(s)).
For Cohort 1, subjects received Regimens […] in a sequential manner at consecutive treatment periods.
Venous blood samples were withdrawn at regular time intervals. Plasma concentration data for Compound 1 and the selexipag parent and active metabolite were analyzed using appropriate non-compartmental techniques to obtain estimates of one or more of the following parameters: • Tlag • Tmax • Cmax • C12 • C24 • AUC(0-last) • AUC(0-inf) • AUC % extrap • lambda-z • T1/2e1 • CL/F • Frel: relative bioavailability of 0.06 mg Compound 1 tablets compared to the reference 0.03 mg Compound 1 capsule Pharmacodynamic Assessments:
One or more of the above pharmacokinetic parameters were determined at one or more of the following time points: pre-dose and (referring to hours after administration): 0.5, 1, 1.5, 2, 3, 4, 5, 6, 8, 10, 12, 16, 20, 24, 36, 48, and 72 hours.

Series [2] in a line: Open-label multiple-dose escalation pharmacokinetic study in fasted or fed healthy subjects (Example 7 B). It is filed as in vivo, human. The protocol:
B. A second open-label, non-randomized pharmacokinetic study was conducted in healthy subjects. Fasted (cohort 1; n=19) or fed state (cohort 2, n=18) subjects received a modified-release tablet formulation of Compound 1 in a dose escalation sequence over 25 days ([…], depending upon individual subject tolerability, […]).
Two cohorts were enrolled to ensure data in 12 evaluable subjects per cohort. […]

The mark [3] stands for this setting: 0.06-0.18 mg modified-release tablets vs 0.03 mg immediate-release capsule.
[4] abbreviates: single oral dose, fasted healthy subjects.
Setting [5] is: modified-release tablet once daily.

On to `O=C(O)COC[C@H]1CC[C@H](COC(=O)N(c2ccccc2)c2ccc(Cl)cc2)CC1` [Compound 1, 2-(((1r,4r)-4-(((4-chlorophenyl)(phenyl)carbamoyloxy)methyl)cyclohexyl)methoxy)acetic acid], for which the “dose-adjusted total exposure (AUC(0-last)) compared to 0.03 mg immediate release capsule” value in series [1] (0.18 mg modified-release tablet) is “similar”. The “relative bioavailability based on individual dose-adjusted Cmax vs immediate-release capsule” value in series [1] (0.06, 0.12 and 0.18 mg modified-release tablet) was “statistically significantly lower”. In addition, in series [1] (setting [3]), the “dose-adjusted peak plasma exposure (Cmax/D), geometric mean ratios modified-release vs immediate-release” value is given as 28.7-41.2% and the “dose-adjusted total plasma exposure (AUC/D), geometric mean ratios modified-release vs immediate-release” value is listed as 63.3-97.9%. Further, the “relative bioavailability based on individual dose-adjusted AUC(0-last) vs immediate-release capsule” value in series [1] (0.06 and 0.12 mg modified-release tablet) is “statistically significantly lower”. Moreover, in series [1] (both sexes, human, plasma, oral, modified-release tablets, across all dose levels (0.06, 0.12, 0.18 mg), read-out: geometric mean half-life), the half-life fell in the range of 19 to 23 h. Further, the Tmax in series [1] (both sexes, human, plasma, single oral administration of 0.06, 0.12 and 0.18 mg modified-release tablets, read-out: median Tmax) is 4 to 10 h. The “plasma concentrations at 24 hours post-dose compared to immediate-release formulation” value in series [1] (modified-release tablet formulation) is reported as “higher”. Further, the “increase of systemic exposure (Cmax and AUC) with dose” value in series [1] (oral modified-release tablet formulation) is reported as “slightly higher than dose-proportional”. Further, in series [1] (setting [4]), the “Cmax, modified-release tablet vs immediate-release capsule” value is recorded as “reduced”; the “Tmax, modified-release tablet vs immediate-release capsule” value is reported as “increased”; the “total plasma concentrations, modified-release tablet vs immediate-release capsule” value is recorded as “similar”. Further, in series [2] (5 days of dosing at 0.60 mg, both fed and fasted state), the “accumulation index (AUC(0-24))” value is recorded as “approximately 2.1 fold”. The “exposure in fed vs fasted state” value in series [2] (after single administration and at steady state) is recorded as “similar”. In addition, in series [2] (setting [5]), the “differences in AUC(0-24) at steady state, female vs male subjects” value is reported as “did not indicate a significant increase”; the “increase of Cmax at steady state in female vs male subjects” value is on record as “greater than 42%”; the “mean plasma exposure measures in females compared to males” value is recorded as “Somewhat higher”. Also, the “plasma exposure measures vs dose” value in series [2] (modified-release tablet once daily, 0.06 to 0.3 mg) is “Dose-dependent”. The peak-trough fluctuation entry in series [2] (modified-release tablet once daily, across dose levels) is recorded as “low”. Further, in series [2] (modified-release tablet once daily, fed vs fasted, across dose levels), the “effect of food on plasma exposure” value is reported as “little effect of food”. In addition, the “Tmax in the fed state” value in series [2] (modified-release tablet, fed vs fasted) was “delayed”.
